This is an account of results in patent US11466032B2, “Cytotoxic agents” (FEMTOGENIX LIMITED, priority 2017, dated 2022).

pIC50: −log10 of the molar value.

Data set [1] has as its system SK-BR-3. Briefly: MTT cytotoxicity assay, 72 hour incubation. Format: cell-based. The conditions noted are these: Homo sapiens, 3 runs. The method, then: (§1) The cytotoxicity of compounds 26, 34, 50,58 and 68 were evaluated in a variety of cell lines using the standard MTT assay for a 72 hour incubation period (Table 1).
(§2) Tumor cell lines were maintained in RPMI1640 medium supplemented with 10% heat-inactivated fetal bovine serum, 2 mM L-glutamine and 1 mM sodium pyruvate. 1800 cells per well were seeded in a volume of 180 μl in a 96-well flat bottom polystyrene plate. The cells were allowed to adhere overnight at 37° C. in a CO2 incubator. Ligands were initially formulated in DMSO, and stocks stored at −80° C. They were then further formulated at lox concentration in RPMI1640 medium. 20 ul of diluted samples were added into each treatment well. On each plate, blank wells with no cells, and untreated wells containing cells, were included. Plates were then cultured at 37° C. in a CO2 incubator for 72 hrs. Cytotoxicity was evaluated using a tetrazolium salt-based assay, the MT assay. After 72 hours, the supernatant was removed from each well and 200 μl of a sterile filtered 500 μg/ml MT solution in water added to each well. The plates were then incubated at 37° C. in a CO2 incubator for 4 hrs. The supernatant was then removed and the formazan crystals formed solubilized by adding 150 μl of DMSO to each well. The plate was then read on a plate reader at 540 nm, and percentage cell survival calculated as follows: ((mean absorbance treated wells at concentration x—mean absorbance blank wells)÷(mean absorbance untreated wells at concentration x—mean absorbance blank wells))×100. Data were plotted as concentration in nM vs. % cell survival in Microsoft Excel, and IC50 values (concentration where cell survival is reduced by a half) were determined from the graph.
(In general: Formazan colour is commonly taken as a measure of viable cells.)

The test system of data set [2] is SW 620. As to the kind of experiment: MTT cytotoxicity assay, 72 hour incubation. In kind it is cell-based. As for the experimental part: as §1, §2
Data set [3] has as its system LIM 1215. As to the kind of experiment: MTT cytotoxicity assay, 72 hour incubation. Format: cell-based. As for the experimental part: as §1, §2
Data set [4] deals with ZR 75-1. Briefly: MTT cytotoxicity assay, 72 hour incubation. Format: cell-based. Conditions: Homo sapiens, 3 runs. As for the experimental part: as §1, §2
The test system of data set [5] is SW48. Briefly: MTT cytotoxicity assay, 72 hour incubation. Format: cell-based. As for the experimental part:
as §1, §2

In data set [6] the test system is MCF-7. As to the kind of experiment: MTT cytotoxicity assay, 72 hour incubation. Format: cell-based. The conditions noted are these: Homo sapiens, MCF7, 3 runs. The method, then:
as §1, §2

Data set [7] relates to HexA and MS1 DNA fragments. Briefly: DNA footprinting. Format: binding. The conditions noted are these: X is any base, Y is G or C, W is A or T; overnight incubation. The method, then: The sequence selectivity of 26 and 34 was investigated using a modification of the previously established DNA footprinting assay^25. Following an overnight incubation of the ligand-DNA complexes, the mixture was mixed with strand separation buffer containing 10 mM EDTA, 10 mM NaOH, 0.1% bromophenol blue, 80% formamide and incubated at 100° C. for 3 min. The mixture was then immediately cooled on ice and run on an 8% denaturing gel.
Footprinting reactions were performed as previously described^[5] using the DNA fragments HexA and HexB, which together contain all 64 symmetrical hexanucleotide sequences^[6], and MS1 that contains all possible […] tetranucleotide sequences^[7]. The DNA fragments were obtained by cutting the parent plasmids with HindIII and SacI (for HexA and MS1) or EcoRI and PstI (for HexB), and were labelled at the 3′-end of the HindIII or EcoRI sites with [α-^32P]dATP using reverse transcriptase or exo-Klenow fragment. After gel purification, the radiolabelled DNA was dissolved in 10 mM Tris-HCl pH 7.5 containing 0.1 mM EDTA, at a concentration of about 10 c.p.s per μL as determined on a hand held Geiger counter. 1.5 μL of radiolabelled DNA was mixed with 1.5 μL ligand that had been freshly diluted in 10 mM Tris-HCl pH 7.5, containing 10 mM NaCl. […]

The test system of data set [8] is linear 32P-end-labelled TyrT DNA. As to the kind of experiment: DNA interstrand cross-linking assay (denaturing polyacrylamide gel). In kind it is biochemical. Conditions: overnight incubation at 37° C. As for the experimental part:
The ability of 26 and 34 to cross-link DNA was determined using an assay involving linear double-stranded HexA. TyrT and MS1 DNA fragments (FIG. 5).
Following denaturation conditions (treatment with formamide and heating at 65° C. for 5 min) the DNA strands were completely separated (see control C2, FIG. 6). The presence of an interstrand cross-link holds the denatured strands in close proximity, and cross-linked adducts therefore run as double-stranded DNA on polyacrylamide gel. Talirine and 34 were tested at >10 different concentrations, and the assay was repeated twice. […] C1 and C2 represent controls where C1 is DNA without formic acid, and C2 is DNA without formic acid, but heated thereby forming single strands. Cross-links are clearly detectable at concentrations as low as 10 nM. Using the same assay, the PBD dimer Talirine was also shown to cross-link DNA down to a concentration of 10 nM (FIG. 7).
The preparation of the DNA fragments (FIG. 5) has been previously described^[4]. Briefly, the sequence which had been cloned into the BamHI site of pUC18 was obtained by cutting with HindIII and EcoRI. Radiolabelled DNA fragments were prepared by filling in the 3′-end of the HindIII site with [α-^32P]dATP using Klenow DNA polymerase (exo-).
The radiolabelled DNA fragment was separated from the remainder of the plasmid DNA on a 6% non-denaturing polyacrylamide gel. […]

For the molecule `COc1ccc(C2=CCN3C(=O)c4cc(OC)c(OCc5cccc(COc6cc7c(cc6OC)C(=O)N6CC=C(c8ccc(OC)cc8)C[C@H]6C=N7)n5)cc4N=C[C@@H]3C2)cc1` [Compound 26, (6aS,6a′S)-3,3′-((Pyridine-2,6-diylbis(methylene))bis(oxy))bis(2-methoxy-8-(4-methoxyphenyl)-7,10-dihydrobenzo[e]pyrido[1,2-α][1,4]diazepin-12(6aH)-one)], the pIC50 (in general, the IC50 on a negative log10 scale, so that one unit is a factor of ten) in data set [1] was 11.22; in data set [2] (Homo sapiens, SW-620, 3 runs) it was 11.30; in data set [3] (LIM1215, 3 runs) it was 11.22; in data set [4] it was 11.30; in data set [5] (Homo sapiens, SW48, 3 runs) it was 11.22; in data set [6], 11.22. For the same molecule, the “general code of the footprints (preferred binding sites)” value in data set [7] is listed as “XYWWYWYX”.

Regarding `COc1cc2c(cc1OCc1cccc(COc3cc4c(cc3OC)C(=O)N3CC=C(c5ccsc5)C[C@H]3C=N4)n1)N=C[C@@H]1CC(c3ccsc3)=CCN1C2=O` [Compound 58, (6aS,6a′S)-3,3′-((Pyridine-2,6-diylbis(methylene))bis(oxy))bis(2-methoxy-8-(thiophen-3-yl)-7,10-dihydrobenzo[e]pyrido[1,2-α][1,4]diazepin-12(6aH)-one)], the pIC50 in data set [2] (Homo sapiens, SW-620, 3 runs) was 10.04; in data set [3] (LIM1215, 3 runs) it was 10.64; in data set [5] (Homo sapiens, SW48, 3 runs), 11.07.

Talirine [reference compound]: the pIC50 in data set [2] (3 runs) was 10.77; in data set [3] (3 runs), 9.36; in data set [5] (3 runs), 11.52. Besides, the “lowest concentration at which DNA is cross-linked” value in data set [8] stood at 10 nM.

As for `COc1cc2c(cc1OCc1cccc(COc3cc4c(cc3OC)C(=O)N3CC=C(c5cncnc5)C[C@H]3C=N4)n1)N=C[C@@H]1CC(c3cncnc3)=CCN1C2=O` [Compound 50, (6aS,6a′S)-3,3′-((Pyridine-2,6-diylbis(methylene))bis(oxy))bis(2-methoxy-8-(pyrimidin-5-yl)-7,10-dihydrobenzo[e]pyrido[1,2-α][1,4]diazepin-12(6aH)-one)], the pIC50 in data set [2] (Homo sapiens, SW-620, 3 runs) is 8.87; in data set [3] (LIM1215, 3 runs) it was 11.43; in data set [5] (Homo sapiens, SW48, 3 runs) it was 11.51.

As to `COc1cc2c(cc1OCc1cccc(COc3cc4c(cc3OC)C(=O)N3CC=C(c5cccs5)C[C@H]3C=N4)n1)N=C[C@@H]1CC(c3cccs3)=CCN1C2=O` [Compound 68, (6aS,6a′S)-3,3′-((Pyridine-2,6-diylbis(methylene))bis(oxy))bis(2-methoxy-8-(thiophen-2-yl)-7,10-dihydrobenzo[e]pyrido[1,2-α][1,4]diazepin-12(6aH)-one)], the negative-log IC50 (pIC50) in data set [2] (Homo sapiens, SW-620, 3 runs) was 10.52; in data set [3] (LIM1215, 3 runs), 10.89; in data set [5] (Homo sapiens, SW48, 3 runs) it was 10.92.
